Data: patent publication US20190382850A1, “METHOD FOR IDENTIFYING MITOCHONDRIAL DNA IN EXTRACELLULAR VESICLES AND TREATMENT OF MTDNA-RELATED DISORDERS AND CANCER” (Memorial Sloan-Kettering Cancer Center, priority 2017, published 2019)

System: mitochondrial complex I and IV
Assay: Mitochondrial complex I/IV activity in HT-treated luminal breast cancer cell lines
Assay type: cell-based, human
Conditions: fulvestrant; FIG. 11e
Source text: (Panel a), Representative bright field images of MCF7 po cells±CAF-EVs (3×10^9/weekly for 40 days). Bar graph of number of MS is also reported at the endpoint of the experiment (40 days). (Panel b), HT led to decreased expression of mRNA involved in protein synthesis and OXPHOS signaling with z score and -log (p-values)- as determined by Ingenuity analysis of microarray data from RNA isolated FIG. 5a (MCF7), single P values are also reported. (Panel c), OXPHOS potential determined as changes of respiration rate under mitochondrial stressors by seahorse technology (oligomycin 1 μM, rotenone 100 nM) in cancer cells isolated from FIG. 5b (MCF7, PT1). […] (Panel e), Mitochondrial Complex I/IV activity quantification as determined by nmol/min/mg of protein in luminal breast cancer cell lines from panel a. […]
To measure mitochondrial complex activity, cell pellets were resuspended in assay buffer (125 mM sucrose, 0.1 mM EDTA, 25 mM Tris-HCl pH 7.5, 0.025% Lauryl-β-D-maltoside), and enzymatic activities were assayed with 0.1-0.4·10^6 cells/ml at 25° C. spectrophotometrically. NADH:HAR reductase activity of Complex I was measured as a decrease in absorption at 340 nm (ε340 nm=6.22 mM-1 cm-1) with 200 μM NADH, 1mM HAR and 1 mM KCN. Complex IV activity was measured as cytochrome oxidation at 550 nm (ε550 nm=21.5 mM-cm-) with 50 μM ferrocytochrome c. […] Protein content was determined with a BCA assay.

Which “mitochondrial complex I and IV activity in cells treated with HT” value does the source give for `C[C@]12CC[C@@H]3c4ccc(O)cc4C[C@@H](CCCCCCCCC[S+]([O-])CCCC(F)(F)C(F)(F)F)[C@H]3[C@@H]1CC[C@@H]2O` (stereo partly shown) [fulvestrant] here?
Its value is “reduced”.
